{"source": "patent US9241976B2", "about": "“Use of HDL-related molecules to treat and prevent proinflammatory conditions” (THE REGENTS OF THE UNIVERSITY OF CALIFORNIA, priority 2011, dated 2016)", "key": {"[1]": {"system": "NIH3T3 cells", "experiment": "NIH3T3 cell viability, MTS assay", "format": "cell-based", "conditions": "10 μg/mL, 48 hours", "quoted_text": "CT26 and NIH3T3 cells (2,000 cells per well) were first cultured in complete medium in 96-well culture plates, and 24 hours later the medium was replaced with serum-free medium. […] Cells were incubated for an additional 48 hours and assayed for viability using MTS assays kit (Promega) according to the manufacturer's protocol."}, "[2]": {"system": "CT26 cells", "experiment": "CT26 cell viability, MTS assay", "conditions": "for Cell viability reduced by, compared with control: Example 3, CT26 cells, 10 μg/ml, 48 hours; for CT26 cell viability vs vehicle-treated controls: Example 6, MTS assay, within 48 hours of treatment", "quoted_text": "CT26 cell line derived from N-nitroso-N-methyl urethane-induced mouse colon carcinoma of BALB/c origin was purchased from the American Type Culture Collection (ATCC). CT26 cells (2,000 cells per well) were first cultured in complete medium in 96-well culture plates, and 24 hours later the medium was replaced with serum free medium. Following an overnight incubation, the cells were either treated with vehicle (control), or treated with 10 μg/mL of either bHDL. The bHDL were dissolved in H2O. Cells were incubated for an additional 48 hours and assayed for viability using the MTS assays kit (Promega) according to the manufacturer's protocol.\nCT26 cell line derived from N-nitroso-N-methyl urethane-induced mouse colon carcinoma of BALB/c origin was purchased from the American Type Culture Collection. CT26 cells (2,000 cells per well) were first cultured in complete medium in 96-well culture plates, and 24 hours later the medium was replaced with serum-free medium. Following an overnight incubation, the cells were either treated with vehicle (control) or treated with 10 mg/mL of either L-4F or G* peptide. The peptides were dissolved in H2O. Cells were incubated for an additional 48 hours and assayed for viability using the MTS assay kit (Promega) according to the manufacturer's protocol."}, "[3]": {"system": "CT26 cells", "experiment": "Tumor-load study: CT26 flank tumors in BALB/c mice", "format": "in vivo, mouse", "conditions": "for flank tumor volume / flank tumor weight: Example 3, 10 mg/kg subcutaneous daily for 15 days", "description": "(§1) 6-week-old BALB/c female mice were given a 100 μL subcutaneous injection of 1×10^6 CT26 cells prepared as a single cell suspension in PBS, and the mice were treated with bHDLor BHDLat 10 mg/kg administered subcutaneously (SQ) daily for 15 days. The mice were sacrificed and tumor weights were measured.\n6-week-old BALB/c female mice were given a 100 μl subcutaneous injection of 1×10^6 CT26 cells prepared as a single cell suspension in PBS, treated with peptide at 10 mg/kg by SQ daily for 15 days.\nThe mice were killed and tumor weights were measured. The tumor volumes were measured using the formula V=½ (L×W^2).\nas §1, with “Six-week-old” for “6-week-old”, “[…]” for “μL”, “sc-4F or L-4F at” for “bHDLor BHDLat”, “subcutaneously” for “subcutaneously (SQ)”"}, "[4]": {"system": "CT26 cells", "experiment": "Pulmonary metastasis in vivo: CT26 lung tumors in BALB/c mice", "parameters": "species or system mouse", "conditions": "CT26 via tail vein", "description": "BALB/c mice were intravenously injected with 2×10^4 CT26 cells in 100 μL of PBS via tail vein injection and the mice were treated with bHDL at 10 mg/kg/day administered SQ for 3 weeks; or treated with bHDL at 100 mg/kg/day administered in a chow diet for 3 weeks. After 3 weeks treatment, the mice were sacrificed; lungs were harvested, weighed and fixed with Bouin's solution (Sigma). Tumor nodules on the lung surface were counted.\nBALB/c mice were intravenously injected with 2×10^4 CT26 cells in […] of PBS via tail vein injection and the mice were treated with L-4F or sc-4F at 10 mg/kg/d administered subcutaneously for 3 weeks, or treated with sc-4F or L-4F or G* peptide at 100 mg/kg/d administered in a chow diet for 3 weeks. After 3 weeks treatment, the mice were sacrificed; lungs were harvested, weighed, and fixed with Bouin solution (Sigma). Tumor nodules on the lung surface were counted."}, "[5]": {"system": "APC^min/+ mice", "experiment": "APC^min/+ mice study, intestinal tumors", "format": "in vivo", "conditions": "C57BL/6J-APC^min/+ mice; 100 mg/kg/d in mouse chow for 8 weeks", "description": "(§2) 6-week-old APC^Min/+ male mice on a C57BL/6J background were treated with bHDL 100 mg/kg/day administered in a chow diet. After 8 weeks treatment, mice were sacrificed. The entire intestine was immediately removed, fixed in formalin and 70% ethanol. The intestine was opened and examined under a dissecting microscope to count and measure the tumors.\nas §2, with “Six-week-oldAPC^min/+” for “6-week-old APC^Min/+”, “L-4F or sc-4F at” for “bHDL”, “mg/kg/d” for “mg/kg/day”"}, "[6]": {"system": "NIH3T3 cells", "experiment": "UV-induced cell death, NIH3T3 cell viability", "format": "cell-based", "conditions": "pre-treatment 10 μg/ml for 24 hrs; UV 5, 10, 20 mJ/cm^2", "description": "NIH 3T3 ([…]) ells were seeded in 96 well plates in 4 separate plates. After 24 hrs, cells were starved overnight. Apo A-l was used at a concentration (10 μg/ml) to treat the cells for 24 hrs. After treatment of cells were washed with PBS. One plate was used as a control without UV treatment. The remaining three plates were used for UV treatment at 5, 10, and 20 mJ/cm^2. Following UV treatment, cells were given complete media and were cultured for another 24 hrs. Cell viability was measured for all the plates as described previously (Ganapathy E, et al., 2011, D-4F, an apoA-1 mimetic peptide inhibits proliferation and tumorigenicity of epithelial ovarian cancer cells by upregulating the antioxidant enzyme MnSOD, Int J Cancer 130:1071-1081)."}, "[7]": {"system": "HIF-1α", "experiment": "HIF-1α protein expression in human ovarian cancer cell lines, Western blot", "format": "cell-based", "conditions": "OV2008 cells; MG-132 10 μM 3 h, L-4F 10 μg/ml 1 h, insulin 200 nM 4 h", "description": "OV2008 cells were cultured in RPMI 1640 media with 10% fetal bovine serum, penicillin (100 U/ml), streptomycin (100 μg/ml), 1× minimal essential medium nonessential amino acid solution (Invitrogen, Carlsbad, Calif.), and insulin (0.25 U/ml) (Invitrogen). CAOV-3 cells were cultured in complete media consisting of Dulbecco's modified Eagle's medium with high glucose and L-glutamine (2 mM), 10% fetal bovine serum, penicillin (100 U/ml), streptomycin (100 μg/ml), and insulin (0.02 U/ml). To create hypoxic conditions, cells were transferred to a hypoxic chamber (model 3130; Thermo Fisher Scientific, Waltham, Mass.), where they were maintained at 37° C. in an atmosphere containing 5% CO2, 1% O2, and 94% N2. L-4F (the peptide Ac-D-W-F-K-A-F-Y-D-K-V-A-E-K-F-K-E-A-F-NH2 (SEQ ID NO: 12) synthesized from all L amino acids) was dissolved in water at 1 mg/ml (freshly prepared every time) and used between 1 and 10 μg/ml. L-5F was synthesized by Peptisyntha Inc. (Torrance, Calif.), dissolved in ABCT buffer (50 mM ammonium bicarbonate, pH 7.0, containing 0.1 mg/ml Tween 20) at 1 mg/ml, and diluted to the required concentrations before use. Cobalt chloride (CoCl2), insulin, cycloheximide (CHX), and N-(benzyloxycarbonyl)leucinylleucinylleucinal-Z-Leu-Leu-Leu-al (MG-132) were purchased from Sigma-Aldrich (St. Louis, Mo.). LPA (Avanti Polar Lipids, Alabaster, Ala.) in chloroform was dried as recommended by the manufacturer, dissolved in ethanol at a concentration of 20 mM as a stock solution, and diluted to the required concentrations in the corresponding cell culture media before use.\nWestern blot analyses were performed as described previously (Gao et al., 2011). In brief, cell lysates were collected in a lysis buffer containing 0.1 MNaCl, 5 mM EDTA, 50 μM sodium orthovanadate, 1% Triton X-100, and protease inhibitor tablet (Roche Diagnostics, Indianapolis, Ind.) in 50 mM Tris buffer, pH 7.5, loaded onto 4 to 12% Bis-Tris gel (Invitrogen), transferred to polyvinylidene difluoride membrane, and incubated with the appropriate antibodies. Anti-pThr^202/Tyr^204-Erk, anti-Erk, anti-pThr^389-p70 S6 kinase, anti-p70 S6 kinase, anti-pSer^473-Akt, and anti-Akt antibodies were purchased from Cell Signaling Technology (Danvers, Mass.); mouse anti-human HIF-1α antibody was purchased from BD Pharmingen (San Diego, Calif.); rabbit anti-mouse HIF-1α antibody was purchased from Abcam Inc. (Cambridge, Mass.); and anti-GAPDH antibody was purchased from Santa Cruz Biotechnology Inc. (Santa Cruz, Calif.)."}, "[8]": {"conditions": "10 mg/kg/d subcutaneously for 3 weeks"}, "[9]": {"conditions": "100 mg/kg/d in chow diet for 3 weeks"}}, "note": "Square brackets hold non-standard residues; d marks the D form. Ends that are not written are not given here. Peptide text beside a SMILES is read from it. * marks the point of attachment. Cbz = O=C(OCc1ccccc1)*; Aib = CC(C)(N)C(=O)O"}
{"compound": "CC(=O)N[C@@H](CC(C)C)C(=O)N[C@@H](CCCNC(=N)N)C(=O)N[C@@H](CCCCN)C(=O)N[C@@H](CC(C)C)C(=O)N[C@@H](CCCNC(=N)N)C(=O)N[C@@H](CCCCN)C(=O)N[C@@H](CCCNC(=N)N)C(=O)N[C@@H](CC(C)C)C(=O)N[C@@H](CC(C)C)C(=O)N[C@@H](CCCNC(=N)N)C(=O)N[C@@H](CC(=O)O)C(=O)N[C@@H](Cc1c[nH]c2ccccc12)C(=O)N[C@@H](CC(C)C)C(=O)N[C@@H](CCCCN)C(=O)N[C@@H](C)C(=O)N[C@@H](Cc1ccccc1)C(=O)N[C@@H](Cc1ccc(O)cc1)C(=O)N[C@@H](CC(=O)O)C(=O)N[C@@H](CCCCN)C(=O)N[C@H](C(=O)NC(C)(C)C(=O)N[C@@H](CCC(=O)O)C(=O)N[C@@H](CCCCN)C(=O)N[C@@H](CC(C)C)C(=O)N[C@@H](CCCCN)C(=O)N[C@@H](CCC(=O)O)C(=O)NC(C)(C)C(=O)N[C@@H](Cc1ccccc1)C(N)=O)C(C)C", "note": "[28AA-2, LRKLRKRLLRDWLKAFYDKV-Aib-E-K-L-K-E-Aib-F] (HELM PEPTIDE1{[ac].L.R.K.L.R.K.R.L.L.R.D.W.L.K.A.F.Y.D.K.V.[Aib].E.K.L.K.E.[Aib].F.[am]}$$$$V2.0; N-terminus and C-terminus assumed)", "values": [{"measurement": "NIH3T3 cell viability", "setting": "[1]", "result": "not affected"}]}
{"compound": "CC(=O)N[C@@H](CC(=O)O)C(=O)N[C@@H](Cc1c[nH]c2ccccc12)C(=O)N[C@@H](Cc1ccccc1)C(=O)N[C@@H](CCCCN)C(=O)N[C@@H](C)C(=O)N[C@@H](Cc1ccccc1)C(=O)N[C@@H](Cc1ccc(O)cc1)C(=O)N[C@@H](CC(=O)O)C(=O)N[C@@H](CCCCN)C(=O)N[C@H](C(=O)NC(C)(C)C(=O)N[C@@H](CCC(=O)O)C(=O)N[C@@H](CCCCN)C(=O)N[C@@H](Cc1ccccc1)C(=O)N[C@@H](CCCCN)C(=O)N[C@@H](CCC(=O)O)C(=O)NC(C)(C)C(=O)N[C@@H](Cc1ccccc1)C(N)=O)C(C)C", "note": "[L-4F2, Ac-D-W-F-K-A-F-Y-D-K-V-Aib-E-K-F-K-E-Aib-F-NH2] (HELM PEPTIDE1{[ac].D.W.F.K.A.F.Y.D.K.V.[Aib].E.K.F.K.E.[Aib].F.[am]}$$$$V2.0)", "values": [{"measurement": "Cell viability reduced by, compared with control", "setting": "[2]", "result": "more than 30%"}, {"measurement": "CT26 cell viability vs vehicle-treated controls", "setting": "[2]", "result": "reduced cell viability"}, {"measurement": "NIH3T3 cell viability", "setting": "[1]", "result": "not affected"}, {"measurement": "flank tumor volume", "setting": "[3]", "result": 197, "unit": "mm^3"}, {"measurement": "flank tumor weight", "setting": "[3]", "result": 118, "unit": "mg"}]}
{"compound": "Ac-D-W-F-A-K-D-Y-F-K-K-A-F-V-E-E-F-A-K-NH2 (Ac-DWFAKDYFKKAFVEEFAK-NH2) [sc-4F, reference compound]", "values": [{"measurement": "lung weights", "setting": "[4]; [8]", "result": 280, "unit": "mg"}, {"measurement": "tumor numbers counted on the lung surface", "setting": "[4]; [8]", "result": 33}, {"measurement": "lung weights", "setting": "[4]; [9]", "result": 296, "unit": "mg"}, {"measurement": "tumor numbers on the lung surface", "setting": "[4]; [9]", "result": 21}, {"measurement": "numbers of tumors of diameter 1-3 mm", "setting": "[5]", "result": 56.5}, {"measurement": "numbers of tumors of diameter >3 mm", "setting": "[5]", "result": 12.8}, {"measurement": "total tumor numbers in the intestinal tract, percent of the control", "setting": "[5]", "result": 100, "unit": "%"}, {"measurement": "flank tumor volume", "setting": "[3]", "result": 555, "unit": "mm^3"}, {"measurement": "flank tumor weight", "setting": "[3]", "result": 273, "unit": "mg"}, {"measurement": "flank tumor weights", "setting": "[3]; Example 5, 10 mg/kg subcutaneously daily for 15 days", "result": 778, "unit": "mg"}]}
{"compound": "LRKLRKRLLR LVGRQLEEFL (LRKLRKRLLRLVGRQLEEFL; synthetic peptide mimetic) [20AA]", "values": [{"measurement": "CT26 cell viability vs vehicle-treated controls", "setting": "[2]", "result": "reduced cell viability"}]}
{"compound": "K4,15-4F: SEQ ID NO: 27; based on K14,15 peptides of Nayyar et al., lysines substituted with arginines at residues 4 and 15 (DWFRAFYDKVAEKFREAF; synthetic peptide mimetic)", "values": [{"measurement": "CT26 cell viability vs vehicle-treated controls", "setting": "[2]", "result": "reduced cell viability"}]}
{"compound": "Ac-LRKLRKRLLRDWLKAFYDKVAEKLKEAF-NH2 [28AA, LRKLRKRLLRDWLKAFYDKVAEKLKEAF, reference compound]", "values": [{"measurement": "Cell viability reduced by, compared with control", "setting": "[2]", "result": 70, "unit": "%"}, {"measurement": "NIH3T3 cell viability", "setting": "[1]", "result": "not affected"}, {"measurement": "flank tumor weight", "setting": "[3]", "result": 188, "unit": "mg"}]}
{"compound": "ApoA-II: a protein that is also associated with HDL like apoA-I [reference compound]", "values": [{"measurement": "UV-induced cell death (cell viability)", "setting": "[6]", "result": "did not prevent UV-induced cell death"}]}
{"compound": "ApoA-l: full-length and unmodified ApoA-I, typically human, a 28.2 kDa protein of 244 amino acids", "values": [{"measurement": "UV-induced cell death (cell viability)", "setting": "[6]", "result": "protects NIH3T3 cells from UV-induced cell death"}]}
{"compound": "K4,15-4F2: SEQ ID NO: 28; K4,15-4F further modified with Aib substitution for alanine at positions 11 and 17 (DWFRAFYDKV[Aib]EKFRE[Aib]F)", "values": [{"measurement": "CT26 cell viability vs vehicle-treated controls", "setting": "[2]", "result": "reduced cell viability"}]}
{"compound": "CC(C)C[C@@H](C=O)NC(=O)[C@H](CC(C)C)NC(=O)[C@H](CC(C)C)NC(=O)OCc1ccccc1", "note": "[MG-132, N-(benzyloxycarbonyl)leucinylleucinylleucinal-Z-Leu-Leu-Leu-al, reference compound] (Cbz-Leu-Leu-Leu-aldehyde)", "values": [{"measurement": "effect on the L-4F inhibition of insulin-mediated HIF-1α expression", "setting": "[7]", "result": "led to a reversal of the inhibitory effect of L-4F"}]}
